Data from PubChem BioAssay AID2060510 (Molecular Pharmacology Branch, DTP, NCI, 2025).

Test system: 439559-082-T-J2-PDC spheroids viability
Assay: Anticancer human tumor 439559-082-T-J2-PDC patient-derived colon adenocarcinoma cell line growth inhibition [GQUAD]
Settings: for IC50: curve of first compound; for viability, T/C: stronger effect = lower value
Procedure, shortened: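 Multi-cell-type spheroids of tumor cells with HUVEC and mesenchymal stem cells, treated with drug combinations. Concentrations descend in half-log steps from near clinical Cmax, or from 10 microM where Cmax is unknown; viability read-out.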

[1] = second compound 0.0316 µM, first compound 0.0316 µM
[2] = second compound 0.0316 µM, first compound 0.316 µM
[3] = second compound 0.1 µM, first compound 0.0316 µM
[4] = second compound 0.1 µM, first compound 0.316 µM
[5] = second compound 0.316 µM, first compound 0.0316 µM
[6] = second compound 0.316 µM, first compound 0.316 µM
[7] = second compound 1 µM, first compound 0.0316 µM
[8] = second compound 1 µM, first compound 0.316 µM
[9] = second compound 3.16 µM, first compound 0.0316 µM
[10] = second compound 3.16 µM, first compound 0.316 µM
[11] = second compound 10 µM, first compound 0.0316 µM
[12] = second compound 10 µM, first compound 0.316 µM
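Further: spheroids exposed to the agents for 7 days before readout.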
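Wherever viability, T/C is given: percent of luminescence signal in DMSO vehicle wells taken as 100% viability.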

COc1ncnc(C2CC2)c1-c1ncc2cnn(Cc3ccc(-c4nc(C(F)(F)F)cn4C(C)C)cc3)c2n1 + CN(C)c1ccc(Nc2c3ccc(NC(=O)CCN4CCCC4)cc3nc3cc(NC(=O)CCN4CCCC4)ccc23)cc1
IC50 (second compound 0.0316 µM): > 10 µM
IC50 (second compound 0.1 µM): > 10 µM
IC50 (second compound 0.316 µM): > 10 µM
IC50 (second compound 1 µM): > 10 µM
IC50 (second compound 3.16 µM): > 10 µM
IC50 (second compound 10 µM): > 10 µM
viability, T/C [1]: 93.2%
viability, T/C (second compound 0.0316 µM, first compound 0.1 µM): 106%
viability, T/C [2]: 90.6%
viability, T/C (second compound 0.0316 µM, first compound 1 µM): 89.5%
viability, T/C (second compound 0.0316 µM, first compound 3.16 µM): 103%
viability, T/C (second compound 0.0316 µM, first compound 10 µM): 98.5%
viability, T/C [3]: 98.7%
viability, T/C (second compound 0.1 µM, first compound 0.1 µM): 93.5%
viability, T/C [4]: 97.5%
viability, T/C (second compound 0.1 µM, first compound 1 µM): 99.1%
viability, T/C (second compound 0.1 µM, first compound 3.16 µM): 94.8%
viability, T/C (second compound 0.1 µM, first compound 10 µM): 96.6%
viability, T/C [5]: 91.6%
viability, T/C (second compound 0.316 µM, first compound 0.1 µM): 96.1%
viability, T/C [6]: 82.7%
viability, T/C (second compound 0.316 µM, first compound 1 µM): 97.7%
viability, T/C (second compound 0.316 µM, first compound 3.16 µM): 96.8%
viability, T/C (second compound 0.316 µM, first compound 10 µM): 102%
viability, T/C [7]: 98.8%
viability, T/C (second compound 1 µM, first compound 0.1 µM): 96.3%
viability, T/C [8]: 98.4%
viability, T/C (second compound 1 µM, first compound 1 µM): 87.9%
viability, T/C (second compound 1 µM, first compound 3.16 µM): 104%
viability, T/C (second compound 1 µM, first compound 10 µM): 92.7%
viability, T/C [9]: 90.4%
viability, T/C (second compound 3.16 µM, first compound 0.1 µM): 98.4%
viability, T/C [10]: 91.6%
viability, T/C (second compound 3.16 µM, first compound 1 µM): 93.5%
viability, T/C (second compound 3.16 µM, first compound 3.16 µM): 96%
viability, T/C (second compound 3.16 µM, first compound 10 µM): 99%
viability, T/C [11]: 89.3%
viability, T/C (second compound 10 µM, first compound 0.1 µM): 86.2%
viability, T/C [12]: 90.6%
viability, T/C (second compound 10 µM, first compound 1 µM): 96.6%
viability, T/C (second compound 10 µM, first compound 3.16 µM): 105%
viability, T/C (second compound 10 µM, first compound 10 µM): 92.6%

Cc1[nH]c2ccccc2c1CCNCc1ccc(/C=C/C(=O)NO)cc1 + CN(C)c1ccc(Nc2c3ccc(NC(=O)CCN4CCCC4)cc3nc3cc(NC(=O)CCN4CCCC4)ccc23)cc1
IC50 (second compound 0.0316 µM): > 0.316 µM
IC50 (second compound 0.1 µM): > 0.316 µM
IC50 (second compound 0.316 µM): > 0.316 µM
IC50 (second compound 1 µM): > 0.316 µM
IC50 (second compound 3.16 µM): > 0.316 µM
IC50 (second compound 10 µM): > 0.316 µM
viability, T/C (second compound 0.0316 µM, first compound 0.000999 µM): 105%
viability, T/C (second compound 0.0316 µM, first compound 0.00316 µM): 86.9%
viability, T/C (second compound 0.0316 µM, first compound 0.00999 µM): 91.8%
viability, T/C [1]: 87.3%
viability, T/C (second compound 0.0316 µM, first compound 0.0999 µM): 84.7%
viability, T/C [2]: 63.6%
viability, T/C (second compound 0.1 µM, first compound 0.000999 µM): 110%
viability, T/C (second compound 0.1 µM, first compound 0.00316 µM): 102%
viability, T/C (second compound 0.1 µM, first compound 0.00999 µM): 101%
viability, T/C [3]: 83.9%
viability, T/C (second compound 0.1 µM, first compound 0.0999 µM): 83.8%
viability, T/C [4]: 60.9%
viability, T/C (second compound 0.316 µM, first compound 0.000999 µM): 93.6%
viability, T/C (second compound 0.316 µM, first compound 0.00316 µM): 91.3%
viability, T/C (second compound 0.316 µM, first compound 0.00999 µM): 85.5%
viability, T/C [5]: 76.4%
viability, T/C (second compound 0.316 µM, first compound 0.0999 µM): 80%
viability, T/C [6]: 62.3%
viability, T/C (second compound 1 µM, first compound 0.000999 µM): 99.1%
viability, T/C (second compound 1 µM, first compound 0.00316 µM): 99.1%
viability, T/C (second compound 1 µM, first compound 0.00999 µM): 99.9%
viability, T/C [7]: 86.9%
viability, T/C (second compound 1 µM, first compound 0.0999 µM): 78.5%
viability, T/C [8]: 64.1%
viability, T/C (second compound 3.16 µM, first compound 0.000999 µM): 93.8%
viability, T/C (second compound 3.16 µM, first compound 0.00316 µM): 89.4%
viability, T/C (second compound 3.16 µM, first compound 0.00999 µM): 88.5%
viability, T/C [9]: 79.2%
viability, T/C (second compound 3.16 µM, first compound 0.0999 µM): 75.3%
viability, T/C [10]: 60.8%
viability, T/C (second compound 10 µM, first compound 0.000999 µM): 96.1%
viability, T/C (second compound 10 µM, first compound 0.00316 µM): 95.7%
viability, T/C (second compound 10 µM, first compound 0.00999 µM): 97.9%
viability, T/C [11]: 84.7%
viability, T/C (second compound 10 µM, first compound 0.0999 µM): 83%
viability, T/C [12]: 68.9%
